Experimental data: the NIST ThermoML archive (doi:10.1021/je050416y)

Assay: xn = mol fraction of the nth substance listed
Conditions: 101 kPa, Liquid; for mass density: Vibrating tube method

CCC(C)(C)O [2-methylbutan-2-ol] + CCO
Conditions	kinematic viscosity [m2/s]	mass density [kg/m3]
293.15 K, x1 = 0.0268	–	790.6
293.15 K, x1 = 0.0549	–	791.5
293.15 K, x1 = 0.0845	–	792.2
293.15 K, x1 = 0.0915	1.64e-06	–
293.15 K, x1 = 0.1156	–	793
293.15 K, x1 = 0.1484	–	793.9
293.15 K, x1 = 0.1753	1.76e-06	–
293.15 K, x1 = 0.183	–	794.8
293.15 K, x1 = 0.2524	1.89e-06	–
293.15 K, x1 = 0.2584	–	797
293.15 K, x1 = 0.3235	2.04e-06	–
293.15 K, x1 = 0.3433	–	799.5
293.15 K, x1 = 0.3894	2.19e-06	–
293.15 K, x1 = 0.4395	–	802.4
293.15 K, x1 = 0.4505	2.35e-06	–
293.15 K, x1 = 0.5495	–	805.3
293.15 K, x1 = 0.5605	2.69e-06	–
293.15 K, x1 = 0.6567	3.07e-06	–
293.15 K, x1 = 0.6765	–	808.3
293.15 K, x1 = 0.7416	3.46e-06	–
293.15 K, x1 = 0.817	3.86e-06	–
293.15 K, x1 = 0.8247	–	811.2
293.15 K, x1 = 0.8844	4.26e-06	–
293.15 K, x1 = 0.9451	4.67e-06	–
293.15 K, x1 = 1	5.11e-06	813.9
298.15 K, x1 = 0.0268	–	786.4
298.15 K, x1 = 0.0549	–	787.3
298.15 K, x1 = 0.0845	–	788.2
298.15 K, x1 = 0.0915	1.5e-06	–
298.15 K, x1 = 0.1156	–	789.1
298.15 K, x1 = 0.1484	–	790
298.15 K, x1 = 0.1753	1.62e-06	–
298.15 K, x1 = 0.183	–	791
298.15 K, x1 = 0.2524	1.74e-06	–
298.15 K, x1 = 0.2584	–	793.3
298.15 K, x1 = 0.3235	1.86e-06	–
298.15 K, x1 = 0.3433	–	795.9
298.15 K, x1 = 0.3894	1.99e-06	–
298.15 K, x1 = 0.4395	–	798.8
298.15 K, x1 = 0.4505	2.13e-06	–
298.15 K, x1 = 0.5495	–	801.8
298.15 K, x1 = 0.5605	2.43e-06	–
298.15 K, x1 = 0.6567	2.76e-06	–
298.15 K, x1 = 0.6765	–	804.8
298.15 K, x1 = 0.7416	3.1e-06	–
298.15 K, x1 = 0.817	3.44e-06	–
298.15 K, x1 = 0.8247	–	807.7
298.15 K, x1 = 0.8844	3.78e-06	–
298.15 K, x1 = 0.9451	4.12e-06	–
298.15 K, x1 = 1	4.47e-06	810.5
303.15 K, x1 = 0.0268	–	782.1
303.15 K, x1 = 0.0549	–	783.2
303.15 K, x1 = 0.0845	–	784.2
303.15 K, x1 = 0.0915	1.34e-06	–
303.15 K, x1 = 0.1156	–	785.2
303.15 K, x1 = 0.1484	–	786.2
303.15 K, x1 = 0.1753	1.44e-06	–
303.15 K, x1 = 0.183	–	787.3
303.15 K, x1 = 0.2524	1.55e-06	–
303.15 K, x1 = 0.2584	–	789.7
303.15 K, x1 = 0.3235	1.66e-06	–
303.15 K, x1 = 0.3433	–	792.3
303.15 K, x1 = 0.3894	1.78e-06	–
303.15 K, x1 = 0.4395	–	795.2
303.15 K, x1 = 0.4505	1.91e-06	–
303.15 K, x1 = 0.5495	–	798.2
303.15 K, x1 = 0.5605	2.17e-06	–
303.15 K, x1 = 0.6567	2.45e-06	–
303.15 K, x1 = 0.6765	–	801.3
303.15 K, x1 = 0.7416	2.74e-06	–
303.15 K, x1 = 0.817	3.04e-06	–
303.15 K, x1 = 0.8247	–	804.2
303.15 K, x1 = 0.8844	3.33e-06	–
303.15 K, x1 = 0.9451	3.62e-06	–
303.15 K, x1 = 1	3.91e-06	807
308.15 K, x1 = 0.0268	–	777.8
308.15 K, x1 = 0.0549	–	778.9
308.15 K, x1 = 0.0845	–	780
308.15 K, x1 = 0.0915	1.23e-06	–
308.15 K, x1 = 0.1156	–	781.1
308.15 K, x1 = 0.1484	–	782.3
308.15 K, x1 = 0.1753	1.33e-06	–
308.15 K, x1 = 0.183	–	783.4
308.15 K, x1 = 0.2524	1.42e-06	–
308.15 K, x1 = 0.2584	–	785.9
308.15 K, x1 = 0.3235	1.52e-06	–
308.15 K, x1 = 0.3433	–	788.6
308.15 K, x1 = 0.3894	1.62e-06	–
308.15 K, x1 = 0.4395	–	791.5
308.15 K, x1 = 0.4505	1.72e-06	–
308.15 K, x1 = 0.5495	–	794.6
308.15 K, x1 = 0.5605	1.95e-06	–
308.15 K, x1 = 0.6567	2.19e-06	–
308.15 K, x1 = 0.6765	–	797.6
308.15 K, x1 = 0.7416	2.43e-06	–
308.15 K, x1 = 0.817	2.68e-06	–
308.15 K, x1 = 0.8247	–	800.6
308.15 K, x1 = 0.8844	2.93e-06	–
308.15 K, x1 = 0.9451	3.16e-06	–
308.15 K, x1 = 1	3.39e-06	803.5
313.15 K, x1 = 0.0268	–	773.5
313.15 K, x1 = 0.0549	–	774.8
313.15 K, x1 = 0.0845	–	776
313.15 K, x1 = 0.0915	1.12e-06	–
313.15 K, x1 = 0.1156	–	777.2
313.15 K, x1 = 0.1484	–	778.4
313.15 K, x1 = 0.1753	1.2e-06	–
313.15 K, x1 = 0.183	–	779.6
313.15 K, x1 = 0.2524	1.29e-06	–
313.15 K, x1 = 0.2584	–	782.2
313.15 K, x1 = 0.3235	1.37e-06	–
313.15 K, x1 = 0.3433	–	784.9
313.15 K, x1 = 0.3894	1.46e-06	–
313.15 K, x1 = 0.4395	–	787.9
313.15 K, x1 = 0.4505	1.55e-06	–
313.15 K, x1 = 0.5495	–	790.9
313.15 K, x1 = 0.5605	1.74e-06	–
313.15 K, x1 = 0.6567	1.94e-06	–
313.15 K, x1 = 0.6765	–	794
313.15 K, x1 = 0.7416	2.14e-06	–
313.15 K, x1 = 0.817	2.34e-06	–
313.15 K, x1 = 0.8247	–	797.1
313.15 K, x1 = 0.8844	2.54e-06	–
313.15 K, x1 = 0.9451	2.73e-06	–
313.15 K, x1 = 1	2.91e-06	800
318.15 K, x1 = 0.0268	–	769.3
318.15 K, x1 = 0.0549	–	770.6
318.15 K, x1 = 0.0845	–	771.9
318.15 K, x1 = 0.0915	1.02e-06	–
318.15 K, x1 = 0.1156	–	773.2
318.15 K, x1 = 0.1484	–	774.4
318.15 K, x1 = 0.1753	1.1e-06	–
318.15 K, x1 = 0.183	–	775.7
318.15 K, x1 = 0.2524	1.18e-06	–
318.15 K, x1 = 0.2584	–	778.4
318.15 K, x1 = 0.3235	1.25e-06	–
318.15 K, x1 = 0.3433	–	781.2
318.15 K, x1 = 0.3894	1.33e-06	–
318.15 K, x1 = 0.4395	–	784.2
318.15 K, x1 = 0.4505	1.41e-06	–
318.15 K, x1 = 0.5495	–	787.3
318.15 K, x1 = 0.5605	1.57e-06	–
318.15 K, x1 = 0.6567	1.73e-06	–
318.15 K, x1 = 0.6765	–	790.5
318.15 K, x1 = 0.7416	1.9e-06	–
318.15 K, x1 = 0.817	2.07e-06	–
318.15 K, x1 = 0.8247	–	793.6
318.15 K, x1 = 0.8844	2.23e-06	–
318.15 K, x1 = 0.9451	2.38e-06	–
318.15 K, x1 = 1	2.52e-06	796.6
323.15 K, x1 = 0.0268	–	764.9
323.15 K, x1 = 0.0549	–	766.3
323.15 K, x1 = 0.0845	–	767.7
323.15 K, x1 = 0.0915	9.01e-07	–
323.15 K, x1 = 0.1156	–	769.1
323.15 K, x1 = 0.1484	–	770.4
323.15 K, x1 = 0.1753	9.68e-07	–
323.15 K, x1 = 0.183	–	771.8
323.15 K, x1 = 0.2524	1.03e-06	–
323.15 K, x1 = 0.2584	–	774.6
323.15 K, x1 = 0.3235	1.09e-06	–
323.15 K, x1 = 0.3433	–	777.5
323.15 K, x1 = 0.3894	1.16e-06	–
323.15 K, x1 = 0.4395	–	780.5
323.15 K, x1 = 0.4505	1.22e-06	–
323.15 K, x1 = 0.5495	–	783.7
323.15 K, x1 = 0.5605	1.35e-06	–
323.15 K, x1 = 0.6567	1.49e-06	–
323.15 K, x1 = 0.6765	–	787
323.15 K, x1 = 0.7416	1.62e-06	–
323.15 K, x1 = 0.817	1.75e-06	–
323.15 K, x1 = 0.8247	–	790.2
323.15 K, x1 = 0.8844	1.87e-06	–
323.15 K, x1 = 0.9451	1.99e-06	–
323.15 K, x1 = 1	2.09e-06	793.3
